Some test systems named below: 786-0 renal; A498 renal; A549 NSCLC; BT-549 breast; IGROV1 ovarian; MALME-3M melanoma; MOLT-4 leukemia; NCI-H460 lung; RXF 393 renal; SK-MEL-28 melanoma; TK-10 renal; SK-MEL-2 melanoma; UACC-62 melanoma.
Experiment in all cases: inhibition of tumour cell growth, NCI panel, 48 h

Each structure is given as a SMILES string.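 Results reflect a 48-hour exposure of cells in 96-well plates to compound at five concentrations. GI50: concentration for 50% inhibition of growth. At the TGI there is no net growth.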

Turning to `COc1cc(Nc2nc3ccccc3nc2C(=O)O)cc(OC)c1OC`, the TGI in the experiment on 786-0 renal was more than 100 µM; in the experiment on A498 renal, 82.5 µM; in the experiment on A549 NSCLC, more than 100 µM; with BT-549 breast, more than 100 µM; with IGROV1 ovarian, more than 100 µM; in the experiment on MALME-3M melanoma, more than 100 µM. Also, the TGI in the experiment with MOLT-4 leukemia is more than 100 µM; in the experiment on NCI-H460 lung it was more than 100 µM; with RXF 393 renal it was more than 100 µM; with SK-MEL-28 melanoma, more than 100 µM; in the experiment on TK-10 renal, 78.6 µM.

Take `Cc1ccc(-n2cnc(C(=N)C#N)c2N)cc1`: the TGI in the experiment on 786-0 renal, in the experiment on A498 renal, in the experiment on A549 NSCLC, in the experiment on BT-549 breast, in the experiment on IGROV1 ovarian and in the experiment on MALME-3M melanoma was more than 100 µM each time. Further, the TGI in the experiment with MOLT-4 leukemia, in the experiment with NCI-H460 lung, in the experiment with SK-MEL-2 melanoma, in the experiment with SK-MEL-28 melanoma, with TK-10 renal and in the experiment on UACC-62 melanoma was more than 100 µM in each case.

Regarding `O=[N+]([O-])c1ccc(CN(CCCl)OCCCl)cc1`, the TGI in the experiment with 786-0 renal, with A549 NSCLC, with BT-549 breast, with IGROV1 ovarian, in the experiment with MALME-3M melanoma and in the experiment on MOLT-4 leukemia was more than 100 µM each time. Besides, the TGI in the experiment on NCI-H460 lung, in the experiment on RXF 393 renal, in the experiment with SK-MEL-2 melanoma, in the experiment with SK-MEL-28 melanoma, with TK-10 renal and in the experiment on UACC-62 melanoma was more than 100 µM each time.

As to `CN1CCc2c([nH]c3ccccc23)C1`, the TGI in the experiment with 786-0 renal was more than 100 µM; in the experiment on A549 NSCLC it was more than 100 µM; in the experiment with BT-549 breast it was more than 100 µM; in the experiment on IGROV1 ovarian, more than 100 µM; with MALME-3M melanoma, 86.8 µM; in the experiment on MOLT-4 leukemia it was more than 100 µM. In addition, the TGI with NCI-H460 lung, in the experiment on RXF 393 renal, with SK-MEL-2 melanoma, in the experiment on SK-MEL-28 melanoma, in the experiment on TK-10 renal and with UACC-62 melanoma was more than 100 µM in each case.

With `CC(C)(C)OC(=O)N(CCCCN(CCCNC(=O)C(F)(F)F)C(=O)OC(C)(C)C)CCCNC(=O)C(F)(F)F`, the TGI with 786-0 renal, in the experiment with A498 renal, in the experiment on A549 NSCLC, in the experiment on BT-549 breast, in the experiment on IGROV1 ovarian and in the experiment with MOLT-4 leukemia was more than 100 µM in each case. Moreover, the TGI in the experiment on NCI-H460 lung, in the experiment on RXF 393 renal, in the experiment on SK-MEL-2 melanoma, in the experiment with SK-MEL-28 melanoma, in the experiment on TK-10 renal and in the experiment on UACC-62 melanoma was more than 100 µM in each case.

As for `Nc1c(C(=O)O)nnc2ccc(Cl)cc12`, the TGI in the experiment on 786-0 renal, with A498 renal, with A549 NSCLC, in the experiment on BT-549 breast, with IGROV1 ovarian and in the experiment on MALME-3M melanoma was more than 100 µM throughout. Moreover, the TGI in the experiment with MOLT-4 leukemia, with NCI-H460 lung, in the experiment on SK-MEL-2 melanoma, with TK-10 renal and in the experiment on UACC-62 melanoma was more than 100 µM throughout.

Take `O=C1COc2cccnc2N1CCCCO`: the TGI in the experiment with 786-0 renal, in the experiment with A498 renal, in the experiment on A549 NSCLC, with BT-549 breast, in the experiment with IGROV1 ovarian and with MOLT-4 leukemia was more than 100 µM in each case. In addition, the TGI with NCI-H460 lung, in the experiment with RXF 393 renal, with SK-MEL-2 melanoma, with SK-MEL-28 melanoma, in the experiment with TK-10 renal and in the experiment on UACC-62 melanoma was more than 100 µM each time.

As for `O=C1c2ccccc2C(=O)c2c(NCC(O)CO)ccc(NCC(O)CO)c21` (stereo unspecified), the TGI with 786-0 renal, with A498 renal, with A549 NSCLC, with BT-549 breast, in the experiment with IGROV1 ovarian and in the experiment with MALME-3M melanoma was more than 100 µM in each case. The TGI with MOLT-4 leukemia was more than 100 µM; with NCI-H460 lung it was more than 100 µM; in the experiment with SK-MEL-2 melanoma, 94.8 µM; with SK-MEL-28 melanoma, more than 100 µM; with TK-10 renal, more than 100 µM; in the experiment on UACC-62 melanoma, more than 100 µM.

On to `COc1ccc(C2SC(N)=Nc3c2c(C)nn3C(=O)c2ccncc2)cc1OC` (stereo unspecified), for which the TGI in the experiment with 786-0 renal, in the experiment on A549 NSCLC, with BT-549 breast, in the experiment with IGROV1 ovarian, in the experiment with MALME-3M melanoma and with MOLT-4 leukemia was more than 10 µM in each case. Besides, the TGI with NCI-H460 lung, in the experiment on RXF 393 renal, in the experiment with SK-MEL-2 melanoma, in the experiment on SK-MEL-28 melanoma, with TK-10 renal and with UACC-62 melanoma was more than 10 µM each time.

Turning to `Cc1ccnc2[nH]c(-c3ccc4ccccc4c3)cc(=O)c12`, the TGI amounted to 5.97 µM in the experiment with 786-0 renal; 4.87 µM in the experiment with A498 renal; 16.1 µM with A549 NSCLC; 31.8 µM in the experiment with BT-549 breast; 11.1 µM with IGROV1 ovarian; 18.6 µM in the experiment with MALME-3M melanoma. Further, the TGI was more than 100 µM in the experiment with MOLT-4 leukemia; 7.34 µM in the experiment with NCI-H460 lung; 28.2 µM in the experiment on SK-MEL-2 melanoma; 14.9 µM in the experiment with SK-MEL-28 melanoma; 13.4 µM in the experiment with TK-10 renal; 9 µM with UACC-62 melanoma. In addition, the GI50 in the experiment with NCI-H460 lung is 1.05 µM.

With `O=C(Nc1ccccc1)c1cc(S(=O)(=O)NC2=NC(c3ccccc3)c3cc(Cl)ccc3N2)c(SSc2cc(Cl)c(C(=O)Nc3ccccc3)cc2S(=O)(=O)NC2=NC(c3ccccc3)c3cc(Cl)ccc3N2)cc1Cl` (stereo unspecified), the TGI is more than 100 µM in the experiment with 786-0 renal; more than 100 µM in the experiment with A549 NSCLC; more than 100 µM with BT-549 breast; more than 100 µM with IGROV1 ovarian; more than 100 µM in the experiment on MALME-3M melanoma; more than 58.3 µM with MOLT-4 leukemia. Further, the TGI with NCI-H460 lung, in the experiment on RXF 393 renal, in the experiment with SK-MEL-2 melanoma, in the experiment on SK-MEL-28 melanoma, with TK-10 renal and in the experiment with UACC-62 melanoma was more than 100 µM each time.

Source of the values: PubChem BioAssay (NCI).
